Results reported in patent US11716992B2, “5A5B6C tricyclic spirolactone derivative, preparation method therefor and use thereof” (NANKAI UNIVERSITY, priority 2017, dated 2023).
Several values for one entry are separate records, joined by “and”; a condition that tells them apart may be missing. Identical values can stand only once. Like-named read-outs stand apart in the source and are kept apart here.

Tests used:
[1] = system: Apis mellifera ligustica Spin; conditions: for Death number after 24 h / Death number after 48 h: per replicate of 10 bees
[2] = system: Mythimna separate (Walker); assay: Insecticidal activity against Mythimna separate (Walker); type: in vivo; conditions: Mythimna, 100 μg/mL; read-out: insecticidal activity, Mythimna separate (Walker)
[3] = system: Helicoverpa armigera (Hübner); assay: Insecticidal activity against Helicoverpa armigera (Hübner); type: in vivo; conditions: Helicoverpa armigera; 100 μg/mL; read-out: insecticidal activity, Helicoverpa armigera (Hübner)
Ostrinia furnacalis = assay: Insecticidal activity against Ostrinia furnacalis; type: in vivo; conditions: Ostrinia furnacalis; 100 μg/mL; read-out: insecticidal activity, Ostrinia furnacalis
Caenorhabditis elegans = assay: Insecticidal activity against Caenorhabditis elegans; type: in vivo; conditions: Caenorhabditis elegans, 100 μg/mL; read-out: insecticidal activity, Caenorhabditis elegans
Alternaria solani = assay: Fungicidal activity, fungicide growth rate method, AS; type: cell-based; conditions: Alternaria solani, 50 μg/mL; read-out: fungicidal activity (growth inhibition rate), AS
Botrytis cinerea = assay: Fungicidal activity, fungicide growth rate method, BC; type: cell-based; conditions: Botrytis cinerea, 50 μg/mL; read-out: fungicidal activity (growth inhibition rate), BC
[4] = system: Phytophthora infestans (Mont.) de Bary; assay: microbe, parasite or virus in culture; type: cell-based; conditions: Phytophthora infestans, read-out: fungicidal activity (growth inhibition rate), PI, 50 μg/mL
Rhizoctonia cerealis = assay: Fungicidal activity, fungicide growth rate method, RC; type: cell-based; conditions: 50 μg/mL; for inhibition at 50 µg/mL: Ceratobasidium cereale, read-out: fungicidal activity (growth inhibition rate), RC
Cercospora arachidicola = assay: Fungicidal activity, fungicide growth rate method, CA; type: cell-based; conditions: Mycosphaerella arachidis, 50 μg/mL; read-out: fungicidal activity (growth inhibition rate), CA
wheat Gibberella zeae = assay: microbe, parasite or virus in culture; type: cell-based; conditions: Fusarium graminearum, read-out: fungicidal activity (growth inhibition rate), GZ, 50 μg/mL
Pellicularia sasakii = assay: Fungicidal activity, fungicide growth rate method, PS; type: cell-based; conditions: 50 μg/mL; read-out: fungicidal activity (growth inhibition rate), PS
Physalospora piricola = assay: Fungicidal activity, fungicide growth rate method, PP; type: cell-based; conditions: 50 μg/mL; read-out: fungicidal activity (growth inhibition rate), PP

SMILES	pest or weed control at 100 µg/mL [2] [%]	pest or weed control at 100 µg/mL [3] [%]	pest or weed control at 100 µg/mL (Ostrinia furnacalis) [%]	pest or weed control at 100 µg/mL (Caenorhabditis elegans) [%]	inhibition at 50 µg/mL (Alternaria solani) [%]	inhibition at 50 µg/mL (Botrytis cinerea) [%]	inhibition at 50 µg/mL [4] [%]	inhibition at 50 µg/mL (Cercospora arachidicola) [%]	inhibition at 50 µg/mL (wheat Gibberella zeae) [%]	inhibition at 50 µg/mL (Pellicularia sasakii) [%]	inhibition at 50 µg/mL (Rhizoctonia cerealis) [%]	inhibition at 50 µg/mL (Physalospora piricola) [%]	also measured
C=CCC1CC2(O)CC(CC=C)C3CC=CCC32O1 (racemic) [Zyj-7-98]													Death rate after 48 h (%) ([1]; dosage 12.0 μg a.i./bee): 0%; Death number after 24 h ([1]; dosage 12.0 μg a.i./bee): 0; Death number after 48 h ([1]; dosage 12.0 μg a.i./bee): 0
O=C1CCC23CC=CCC12O3 (stereo not shown) [Zyj06-39]	10	0	0	> 30	> 60	36	27						fungicidal activity (growth inhibition rate), RC (Rhizoctonia cerealis): 93%
CCOC(=O)C(C(=O)OCC)C1C[C@]2(O)C(C(=O)OCC)C(=O)O[C@@]23CC=CC[C@H]13 (stereo partly shown) [Zyj06-113-3]	0	0	0	5		> 50	11	> 50	43	11	32		Death rate after 48 h (%) ([1]; dosage 9.87 μg a.i./bee): 0%; Death number after 24 h ([1]; dosage 9.87 μg a.i./bee): 0; Death number after 48 h ([1]; dosage 9.87 μg a.i./bee): 0; Death rate after 48 h (%) ([1]; dosage 15.2 μg a.i./bee): 10.0%; Death number after 24 h ([1]; dosage 15.2 μg a.i./bee): 0; Death number after 48 h ([1]; dosage 15.2 μg a.i./bee): 1
C=CC[C@@H]1CC(=O)[C@@]2(O)CC=CC[C@H]12 [Zyj06-177]	0	0	0		12	48	11	46	0	19	61	11	Death rate after 48 h (%) ([1]; dosage 8.17 μg a.i./bee): 0%; Death number after 24 h ([1]; dosage 8.17 μg a.i./bee): 0; Death number after 48 h ([1]; dosage 8.17 μg a.i./bee): 0; Death rate after 48 h (%) ([1]; dosage 9.46 μg a.i./bee): 0%; Death number after 24 h ([1]; dosage 9.46 μg a.i./bee): 0; Death number after 48 h ([1]; dosage 9.46 μg a.i./bee): 0
C=CC[C@@H]1C[C@]2(O)CC(=O)O[C@@]23C[C@@H](Cl)[C@H](O)C[C@H]13 [Zyj07-14]				20	15	> 50	2	31	43	15	51	31	
C=CC[C@@H]1C[C@@]2(OC(C)=O)C[C@@H](CC=C)[C@H]3CC=CC[C@@]32O1 [Zyj07-38]	15	10	5	> 30				> 50					
C=CC[C@@H]1C[C@]2(OC(C)=O)C[C@@H](OC(C)=O)O[C@@]23C[C@H]2O[C@H]2C[C@H]13 [Zyj07-65-1]	25	10	5	12									Death rate after 48 h (%) ([1]; dosage 7.54 μg a.i./bee): 10.0%; Death number after 24 h ([1]; dosage 7.54 μg a.i./bee): 0 and 1; Death number after 48 h ([1]; dosage 7.54 μg a.i./bee): 0 and 2; Death rate after 48 h (%) ([1]; dosage 18.1 μg a.i./bee): 10.0%; Death number after 24 h ([1]; dosage 18.1 μg a.i./bee): 0 and 1; Death number after 48 h ([1]; dosage 18.1 μg a.i./bee): 0 and 2
C=CC[C@@H]1C[C@@]2(O)C[C@@H](CC=C)[C@H]3CC[C@@H](O)C[C@@]32O1 [Zyj07-69]	25	15	10	10									Death rate after 48 h (%) ([1]; dosage 9.71 μg a.i./bee): 5.0%; Death number after 24 h ([1]; dosage 9.71 μg a.i./bee): 0; Death number after 48 h ([1]; dosage 9.71 μg a.i./bee): 0 and 1
O=C1C[C@@]2(O)CC[C@H]3C[C@@H](O)[C@@H](Cl)C[C@@]32O1 [Zyj07-103]	> 30	15	10			27	42	38	47	0	4	> 50	
